Laboratory results: patent publication US20250205200A1, “5-METHOXY-N,N-[…][…] THE TREATMENT OF […]” (GH RESEARCH IRELAND LIMITED, priority 2022, published 2025)

Test system: patients with postpartum depression (PPD)
Assay: Clinical trial of inhaled 5-MeO-DMT (individualized dosing regimen) in postpartum depression; one patient, 6 mg then 12 mg
Details: n=1; for MADRS Concentration Difficulties improvement / MADRS Concentration Difficulties score / MADRS Reduced appetite improvement / MADRS Reduced appetite score / MADRS Suicidal Thoughts improvement / MADRS Suicidal Thoughts score: baseline 0; for MADRS Inability to Feel improvement / MADRS Inability to Feel score / MADRS Lassitude improvement / MADRS Lassitude score: baseline 3; for MADRS Pessimistic Thoughts improvement / MADRS Pessimistic Thoughts score / MADRS Reported sadness improvement / MADRS Reported sadness score: baseline 4
Method: The single-arm, open-label clinical trial will involve 15 adult female patients with clinically diagnosed postpartum depression (PPD).
The second dose (12 mg) will only be administered if: • a. […] The 6 mg dose was safe and well-tolerated according to the investigator, • c. Any psychoactive effects (PsE) of the prior dose have subsided, and • d. Pre-dose vital parameters and forced expiratory volume in one second (FEV1) are in normal range, or if outside of the normal range, are not clinically significant according to the investigator. • 3. Similarly, a third dose (18 mg) will only be administered if: • a. […] The 12 mg dose was safe and well-tolerated according to the investigator, and • c. Any PsE of the prior dose have subsided, and • d. Pre-dose vital parameters and forced expiratory volume in one second (FEV1) are in normal range, or if outside of the normal range, are not clinically significant according to the investigator.
The patients will be assessed for a peak psychedelic experience (based on a patient-scored visual analogue scale, the PE scale), sedation, and other endpoints after dosing.
Follow-up visits are planned for Day 1, and Day 7 after the dosing day.
The following criteria must be met by all patients considered for clinical trial participation: • 1. Is female and in the age range between 18 and 45 years (inclusive) at screening. • 2. Has a body mass index (BMI) in the range of 18.5 and 35 kg/m^2 (inclusive) at screening. • 3. Meets the trial criteria for PPD as assessed by a trial psychiatrist or registered psychologist: • a. Diagnosis of Major Depressive Disorder without psychotic features, confirmed by the Mini-International Neuropsychiatric Interview (MINI), with peri-partum onset that began no earlier than gestation and no later than the first 4 weeks postpartum. • b. Has a Montgomery-Åsberg Depression Rating Scale (MADRS) total score of equal to or greater than 28 at screening and pre-dose on Day 0. • 6. […] Patients must have a negative pregnancy test at screening and on the pre-test day (Day −1). • 5. Is willing to delay start of other antidepressant or anxiety medication until after the end of the trial at Day 7 and agrees to keep any psychotherapy unchanged during the trial.
A potential patient who meets any of the following key exclusion criteria will be excluded from participation in this trial: • 1. Has, based on history, psychiatric assessment, and evaluation of the MINI, a current or prior diagnosis of bipolar disorder, a manic or hypomanic episode, a psychotic disorder, Major Depressive Disorder (MDD) or other mood disorder with psychotic features, obsessive compulsive disorder, post-traumatic stress disorder (PTSD), autism spectrum disorder, borderline personality disorder, schizophrenia, delusional disorder, paranoid personality disorder, schizoaffective disorder, clinically significant intellectual disability, or any other psychiatric comorbidity that renders the patient unsuitable for the trial according to the investigator's judgment. • 2. Has one or more first or second degree relatives with a current or previously diagnosed bipolar disorder, psychotic disorder or other mood disorder (including MDD) with psychotic features. • 3. Is in the judgement of a trial psychiatrist or registered psychologist, at significant risk for suicide based on history, psychiatric assessment, and evaluation of suicidal ideation and suicidal behaviour based on the Columbia-Suicide Severity Rating Scale (C-SSRS). • 4. Has taken anti-depressive medication within 14 days or 5 half-lives (whichever is longer) prior to dosing (exception: within the last 5 weeks in the case of fluoxetine). • 5.

COc1ccc2[nH]cc(CCN(C)C)c2c1 [5-MeO-DMT]
Adverse events (cramping left abdominal pain and headache, Day 0): mild, short-lasting and resolved spontaneously | Criteria for MADRS response (at least 50% improvement) and MADRS remission (total score <=10): fulfilled standard criteria | ECG (3 hours), safety laboratory analyses (7 days), CADSS (3 hours, 1 day, 7 days): unremarkable | Tolerability of IDR (6 mg followed by 12 mg, inhalation): well tolerated | Tolerability of the inhalation procedure: well tolerated with no inhalation-related adverse events | MADRS Concentration Difficulties improvement (2 hr): 0 | MADRS Concentration Difficulties score (2 hr): 0 | MADRS Reduced appetite improvement (2 hr): 0 | MADRS Reduced appetite score (2 hr): 0 | MADRS Suicidal Thoughts improvement (2 hr): 0 | MADRS Suicidal Thoughts score (2 hr): 0 | MADRS Inability to Feel improvement (2 hr): 3 | MADRS Inability to Feel score (2 hr): 0 | MADRS Lassitude improvement (2 hr): 3 | MADRS Lassitude score (2 hr): 0 | MADRS Pessimistic Thoughts improvement (2 hr): 4 | MADRS Pessimistic Thoughts score (2 hr): 0 | MADRS Reported sadness improvement (2 hr): 4 | MADRS Reported sadness score (2 hr): 0 | MADRS Apparent sadness improvement (2 hr, baseline 5): 5 | MADRS Apparent sadness score (2 hr, baseline 5): 0 | MADRS Inner Tension improvement (2 hr, baseline 5): 5 | MADRS Inner Tension score (2 hr, baseline 5): 0 | MADRS Reduced Sleep improvement (2 hr, baseline 5): 0 | MADRS Reduced Sleep score (2 hr, baseline 5): 5 | MADRS Concentration Difficulties improvement (Day 1): 0 | MADRS Concentration Difficulties score (Day 1): 0 | MADRS Reduced appetite improvement (Day 1): 0 | MADRS Reduced appetite score (Day 1): 0 | MADRS Suicidal Thoughts improvement (Day 1): 0 | MADRS Suicidal Thoughts score (Day 1): 0 | BPRS Blunted affect improvement (Day 1, baseline 1): 0 | BPRS Blunted affect score (Day 1, baseline 1): 1 | BPRS Conceptual disorganization improvement (Day 1, baseline 1): 0 | BPRS Conceptual disorganization score (Day 1, baseline 1): 1 | BPRS Disorientation improvement (Day 1, baseline 1): 0 | BPRS Disorientation score (Day 1, baseline 1): 1 | BPRS Grandiosity improvement (Day 1, baseline 1): 0 | BPRS Grandiosity score (Day 1, baseline 1): 1 | BPRS Hallucinatory behaviour improvement (Day 1, baseline 1): 0 | BPRS Hallucinatory behaviour score (Day 1, baseline 1): 1 | BPRS Hostility improvement (Day 1, baseline 1): 0 | BPRS Hostility score (Day 1, baseline 1): 1 | BPRS Mannerisms and Posturing improvement (Day 1, baseline 1): 0 | BPRS Mannerisms and Posturing score (Day 1, baseline 1): 1 | BPRS Motor retardation improvement (Day 1, baseline 1): 0 | BPRS Motor retardation score (Day 1, baseline 1): 1 | BPRS Suspiciousness improvement (Day 1, baseline 1): 0 | BPRS Suspiciousness score (Day 1, baseline 1): 1 | BPRS Uncooperativeness improvement (Day 1, baseline 1): 0 | BPRS Uncooperativeness score (Day 1, baseline 1): 1 | BPRS Unusual Thought Content improvement (Day 1, baseline 1): 0 | BPRS Unusual Thought Content score (Day 1, baseline 1): 1 | BPRS Excitement improvement (Day 1, baseline 2): 1 | BPRS Excitement score (Day 1, baseline 2): 1 | MADRS Inability to Feel improvement (Day 1): 3 | MADRS Inability to Feel score (Day 1): 0 | MADRS Lassitude improvement (Day 1): 3 | MADRS Lassitude score (Day 1): 0 | MADRS Pessimistic Thoughts improvement (Day 1): 4 | MADRS Pessimistic Thoughts score (Day 1): 0 | MADRS Reported sadness improvement (Day 1): 4 | MADRS Reported sadness score (Day 1): 0 | BPRS Emotional withdrawal improvement (Day 1, baseline 5): 4 | BPRS Emotional withdrawal score (Day 1, baseline 5): 1 | MADRS Apparent sadness improvement (Day 1, baseline 5): 5 | MADRS Apparent sadness score (Day 1, baseline 5): 0 | MADRS Inner Tension improvement (Day 1, baseline 5): 5 | MADRS Inner Tension score (Day 1, baseline 5): 0 | MADRS Reduced Sleep improvement (Day 1, baseline 5): 5 | MADRS Reduced Sleep score (Day 1, baseline 5): 0 | BPRS Depressive Mood improvement (Day 1, baseline 6): 5 | BPRS Depressive Mood score (Day 1, baseline 6): 1 | BPRS Guilt feelings improvement (Day 1, baseline 6): 5 | BPRS Guilt feelings score (Day 1, baseline 6): 1 | BPRS Somatic Concern improvement (Day 1, baseline 6): 5 | BPRS Somatic Concern score (Day 1, baseline 6): 1 | BPRS Tension score (Day 1, baseline 6): 1 | BPRS Anxiety improvement (Day 1, baseline 7): 6 | BPRS Anxiety score (Day 1, baseline 7): 1 | BIMF item 2 (I feel rested) score (Day 7, Day 0 score 0): 2 | BIMF item 19 (getting better at taking care of my baby) score (Day 7, Day 0 score 0): 1 | BIMF item 18 (Anxiety or worry often interferes with my mothering ability) score (Day 7, Day 0 score 2): 5 | BIMF item 16 (I worry about how other people judge me (as a mother)) score (Day 7, Day 0 score 3): 5 | BIMF item 13 (taking good care of my physical needs) score (Day 7, Day 0 score 4): 5 | BIMF item 4 (My baby and I understand each other) score (Day 7, Day 0 score 5): 5 | BIMF item 5 (able to relax and enjoy time with my baby) score (Day 7, Day 0 score 5): 6 | BIMF item 9 (getting enough encouragement from other people) score (Day 7, Day 0 score 5): 6 | BIMF item 10 (I trust my own feelings (instincts) when taking care of my baby) score (Day 7, Day 0 score 5): 6 | BIMF item 11 (I take a little time each week to do something for myself) score (Day 7, Day 0 score 5): 6 | BIMF item 15 (My baby and I are getting into a routine) score (Day 7, Day 0 score 5): 6 | BIMF item 17 (able to take care of my baby and my other responsibilities) score (Day 7, Day 0 score 5): 5 | BIMF item 1 (I am a good mother) score (Day 7, Day 0 score 6): 6 | BIMF item 3 (comfortable with the way I've chosen to feed my baby) score (Day 7, Day 0 score 6): 6 | BIMF item 6 (people I can trust to care for my baby when I need a break) score (Day 7, Day 0 score 6): 6 | BIMF item 8 (getting enough adult interaction) score (Day 7, Day 0 score 6): 6 | BIMF item 12 (taking good care of my baby's physical needs) score (Day 7, Day 0 score 6): 6 | BIMF item 14 (good decisions about my baby's health and well being) score (Day 7, Day 0 score 6): 6 | BIMF item 20 (satisfied with the job I am doing as a new mother) score (Day 7, Day 0 score 6): 5 | MADRS Concentration Difficulties improvement (Day 7): 0 | MADRS Concentration Difficulties score (Day 7): 0 | MADRS Reduced appetite improvement (Day 7): 0 | MADRS Reduced appetite score (Day 7): 0
